{"source": "patent US8809210B2", "about": "“Low roughness high surface-energy, anti-microbial fabric” (priority 2009, dated 2014)", "origin": "cited, not measured here", "conditions": "when covalently bonded to a surface", "data": [{"molecule": "CCCCCCCCCCCCCCCCCC[N+](C)(C)CCC[Si](OC)(OC)OC.[Cl-]", "note": "[Si-QAC, 3-(Trimethoxysilyl)-propyldimethyloctadecyl ammonium chloride]", "values": [{"measurement": "antimicrobial activity", "result": "antimicrobial activity"}]}]}
